According to US8440669B2, “Pharmaceutical composition for prevention and treatment of diabetes or obesity comprising a compound that inhibits activity of dipeptidyl peptidase-IV, and other antidiabetic or antiobesity agents as active ingredients” (Dong-A Pharmaceutical Co. Ltd., priority 2008, dated 2013):
“And” between values parts separate entries of the source, which are not always exact repeats. Equal values may be shown once.

Assays:
Type in all cases: in vivo
blood glucose [1] = assay: OGTT, single administration in diet-induced obesity mice; details: obese mice
Method: (§1) In order to examine synergistic effects of a compound prepared in Preparation Example 1 of the present invention and metformin complex by repeated administration, effects of a single administration to obese mice on an OGTT blood glucose change curve and of a 2-week repeated administration on the percent inhibition of blood glucose were evaluated. Diet-induced obesity mice obtained by supplying experimental mice (C57BL/6 mice) with high fat fodder (60 kcal % fat, Research Diets, D12492) for 5 month were used as experimental subjects. 0.5% methylcellulose (MC) was used to prepare a suspension of the compound 1 prepared in Preparation Example 1 with a composition of 0.1 mg/kg and 0.15 mg/kg. 0.5% MC was used to prepare a suspension of metformin with a composition of 7.5 mg/kg and 15 mg/kg. […] of the complex was prepared in doses of (0.1 mg/kg of a compound prepared in Preparation Example 1+15 mg/kg of metformin)/5 mL and (0.15 mg/kg of a compound prepared in Preparation Example 1+7.5 mg/kg of metformin)/5 mL.
(§2) Obese mice were fasted for 16 to 17 hours prior to the experiments, blood was collected from caudal veins of mice in the morning on the day of the experiment and a blood glucose level was measured with an ACCU-CHEK ACTIVE Blood Glucose Meter (Roche Diagnostics). The mixed composition of the present invention was given orally 30 min prior to glucose administration (−30 min), followed by oral administration of a glucose solution (2 g/kg/10 mL) after 30 min (0 min). Blood collection was made at designated time points—just prior to drug administration, just prior to glucose administration, and 15, 30, 60 and 90 min after glucose administration. The percent inhibition value was calculated by calculating an area under curve of each group and comparing the value with that of a control group in which glucose had been administered.

blood glucose [2] = assay: OGTT after 4-week administration in diet-induced obesity mice (rimonabant combination); details: obese mice
Method: (§3) In order to examine synergistic effects by repeated administration of a compound prepared in Preparation Example 1 and cannabinoid receptor-1 antagonist, effects of 4-week administration to obese mice on an OGTT blood glucose change curve and on fat mass were evaluated. Diet-induced obesity mice obtained by supplying experimental mice (C57BL/6 mice) with high fat fodder (60 kcal % fat, Research Diets, D12492) for 5 month were used as experimental subjects. 0.5% methylcellulose (MC) was used to prepare a suspension of the compound 1 prepared in Preparation Example 1 with a composition of 0.3 mg/kg which is presumed to be a dose of minimum effective efficacy and 3 mg/kg. 0.5% MC was used to prepare a suspension of rimonabant, a cannabinoid receptor-1 antagonist with a composition of 3 mg/kg. Rimonabant has the same parent nucleus structure as a cannabinoid receptor-1 antagonist, such as Otenabant, Ibinabant, and Surinabant, and 5 mL/kg of the complex thereof was prepared in doses of (0.3 mg of a compound prepared in Preparation Example 1+3 mg of rimonabant)/5 mL and (3 mg of a compound prepared in Preparation Example 1+3 mg/kg of rimonabant)/5 mL. When the mixing ratio is 1:0.1 or less, or 1:1 or more, the dose may exceed a daily clinical dose of rimonabant or poor efficacy may occur. Thus, the mixing ratio was set at […].
as §2, with “Diagnostics). The pharmaceutically mixed composition” for “Diagnostics). The mixed composition”, “(0 min). […] The percent” for “(0 min). Blood collection was made at designated time points—just prior to drug administration, just prior to glucose administration, and 15, 30, 60 and 90 min after glucose administration. The percent”

blood glucose [3] = assay: Blood glucose after 7-day administration in db/db diabetic mice
Method: In order to examine synergistic effects of a complex by a compound prepared in Preparation Example 1 of the present invention and an insulin sensitizer PPARγ agonist, the percent inhibition of blood glucose by repeated administration of the complex to db/db mice as diabetic mice was evaluated. Eight-week-old male mice (db/db mice) were used as experimental subjects. […] The dose of a compound prepared in Preparation Example 1 with respect to rosiglitazone at a fixed dose was selected at 1 mg/kg and 40 mg/kg (complex ratio 1:0.01˜1:0.4) in consideration of a complex ratio in an expected clinical dose. […] 0.5% methylcellulose (MC) was at each drug concentration to prepare suspensions. Each compound was weighed, and 0.5% methylcellulose was used to prepare 5 mL/kg of suspensions with each composition of (1 mg of the compound prepared in Preparation Example 1+0.4 mg of rosiglitazone)/5 mL and (40 mg of the compound prepared in Preparation Example 1+0.4 mg of rosiglitazone)/5 mL.
The percent inhibition value with respect to blood glucose was calculated by comparison with a control group.

blood glucose [4] = assay: OGTT, single administration in C57BL/6 mice (glimepiride combination)
Method: In order to examine synergistic effects of a complex of a compound prepared in Preparation Example 1 of the present invention and an insulin secretagogue sulfonyl urea-series drug, the percent inhibitions of single administration OGTT blood glucose change curves by individual materials and complexes were evaluated. 8-week-old male experimental mice (C57BL/6 mice) were used and fasted for 16 to 17 hours prior to the experiments. Blood was collected from caudal veins of mice in the morning on the day of the experiment and a blood glucose level was measured with an ACCU-CHEK ACTIVE Blood Glucose Meter (Roche Diagnostics). The mixed composition of the present invention was given orally 30 min prior to glucose administration (−30 min), followed by oral administration of a glucose solution (2 g/kg/10 mL) after 30 min (0 min). Blood collection was made at designated time points—just prior to drug administration, just prior to glucose administration, and 15, 30, 60 and 90 min after glucose administration. […] In order to evaluate synergistic or additive effects by complex in the present evaluation, 0.5% methylcellulose (MC) was used to prepare a suspension with a dose of a compound prepared in Preparation Example 1 at 0.1 mg/kg, and 0.5% MC was also used to prepare a suspension with a composition of an insulin secretagogue sulfonyl urea-series drug and glimepiride at 0.02 mg/kg and 0.32 mg/kg such that a complex ratio may be included at a clinical dose expected in a fixed state of a compound prepared in Preparation Example 1. […] A complex thereof was prepared at 10 mL per kg by weighing individual compounds and mixing the compounds with each composition ((a compound prepared in Preparation Example 10.1 mg+glimepiride 0.02 mg)/10 mL and (a compound prepared in Preparation Example 10.1 mg+glimepiride 0.32 mg)/10 mL)).

[5] = Fat mass (epidydimal + retroperitoneal fat) after 4-week administration in diet-induced obesity mice; details: 4 weeks; for Fat mass: HF-DIO mice (control 3.61 ± 0.20); for % reduction (fat mass): vs HF-DIO control group
Method: as §3
Experiments were performed on the experimental subject and experimental drug in the same manner as in Experimental Example 5-1, the fat mass was calculated as a sum of epidydimal fat and retroperitoneal fat, and fat mass 4 weeks after administration was measured.

blood glucose [6] = assay: Oral sucrose tolerance test, single administration in C57BL/6 mice (voglibose combination)
Method: In order to examine synergistic effects of a compound prepared in Preparation Example 1 of the present invention and an α-glucosidase inhibitor-series drug by complexing drugs, the percent inhibition in a single administration oral sucrose tolerance test blood glucose change curve by individual materials and a complex thereof was evaluated. 8-week-old male experimental mice (C57BL/6 mice) were used as experimental subjects. The mice were fasted for 16 to 17 hours prior to the experiments. Blood was collected from caudal veins of mice in the morning on the day of the experiment and a blood glucose level was measured with an ACCU-CHEK ACTIVE Blood Glucose Meter (Roche Diagnostics). The pharmaceutically mixed composition of the present invention was given orally 30 min prior to sucrose administration (−30 min), followed by oral administration of a […] (2 g/kg/10 mL) after 30 min (0 min). Blood collection was made at designated time points—just prior to drug administration, just prior to sucrose administration, and 15, 30, 60, 90, and 120 min after sucrose administration. […] In order to evaluate synergistic or additive effects by complexes in the present evaluation, 0.5% methylcellulose (MC) was used to prepare a suspension with a compound prepared in Preparation Example 1 at a dose of 0.3 mg/kg, and 0.5% MC was also used to prepare a suspension with a composition of an α-glucosidase inhibitor and voglibose at 0.009 mg/kg and 0.054 mg/kg (complex ratio 1:0.031:0.18) such that a complex ratio may be included at a clinical dose expected in a state where a dose of a compound prepared in Preparation Example 1 was fixed.

plasma glucose = assay: Plasma glucose after 2-week repeated administration in diet-induced obesity mice; details: obese mice
Method: as §1

blood glucose [7] = assay: Oral glucose tolerance test (OGTT), single administration in normal mice; ED30 and isobologram; details: C57BL/6 mice; for ED30 ± (SEM): dose giving 30% inhibition of OGTT blood glucose AUC, single agent
Method: Laboratory mice (C57BL/6 mice) as experimental subjects were fasted for 16 to 17 hours prior to the experiments. Blood was collected from caudal veins of mice in the morning on the day of the experiment and a blood glucose level was measured with an ACCU-CHEK ACTIVE Blood Glucose Meter (Roche Diagnostics). The pharmaceutical composition of the present invention was given orally 30 min prior to glucose administration (−30 min), followed by oral administration of a glucose solution (2 g/kg/10 mL) after 30 min (0 min). Blood collection was made at designated time points—just prior to drug administration, just prior to glucose administration, and 15, 30, 60 and 90 min after glucose administration.
Effects of single administration of the individual agents on a blood glucose change curve in an oral glucose tolerance test (OGTT) were identified by percent inhibition (%) and ED30. The percent inhibition values for each treatment were generated from the area under curve (AUC) data normalized to the non-glucose challenged controls by subtracted blood glucose AUC of non-glucose challenged controls from glucose challenged groups, and comparing the value with that of a control group in which glucose has been administered.
Feasible synergistic effects of a composition at each fixed ratio were analyzed by isobologram (R. J. Tallarida et al, Life Sci. 1989, 45, 947). […] When the result of ED30mix<ED30add is established at a certain fixed ratio, the mixture has synergistic effects. ED30add was calculated from ED30 of each drug. In FIG. 1, fractions of the ED30 values of each material are present on each axis thereof. The ED30 value of the compound prepared in Preparation Example 1 only is 0.2 mg/kg and shown as value 1 in FIG. 1, and the ED30 value of metformin only is 30 mg/kg and shown as value 1 in FIG. 1. Therefore, the line combining the ED30 values of the two individual drugs indicates a simple additivity (ED30add) calculated from glucose tolerance effects at different ratios. Therefore, the points designated as A, B, C, and D in FIG. 1 with respect to each mixture studied indicate fractions of ED30 values (ED30mic) determined by actual experiments performed on a mixtures of the compound prepared in Preparation Example 1 and metformin at ratios of 9:1, 5:1, 1:1, and 1:3. The points A′, B′, C′, and D′ in FIG. 1 indicate fractions of doses (ED30add) corresponding to mixtures of the compound prepared in Preparation Example 1 and metformin at ratios of 9:1, 5:1, 1:1, and 1:3 expected under a simple additivity.
The ratios of doses actually administered to animals in each fraction were calculated by multiplying 0.2 mg/kg and 30 mg/kg which are ED30 values of the compound prepared in Preparation Example 1 and metformin, respectively with a desired ratio. Administrations were performed in the ranges of: 0.045˜0.36 mg/kg of the compound prepared in Preparation Example 1+0.75˜6 mg/kg of metformin at a ratio of 9:1, 0.042˜0.33 mg/kg of the compound prepared in Preparation Example 1+1.25˜10 mg/kg of metformin at a ratio of 5:1, 0.025˜0.2 mg/kg of the compound prepared in Preparation Example 1+[…] of metformin at a ratio of 1:1, 0.0125˜0.2 mg/kg of the compound prepared in Preparation Example 1+5.625˜45 mg/kg of metformin at a ratio of 1:3. When this is applied to a healthy adult (about 70 kg), the dose corresponds to 0.88˜25.2 mg of the compound prepared in Preparation Example 1 and 52.5˜3150 mg of metformin, and includes a daily clinical dose of metformin, which is 500˜2000 mg.

CC(C)(C)OC[C@@H]1C(=O)NCCN1C(=O)C[C@H](N)Cc1cc(F)c(F)cc1F [(R)-4-[(R)-3-amino-4-(2,4,5-trifluorophenyl)-butanoyl]-3-(t-butoxymethyl)piperazin-2-one]
Percent inhibition (blood glucose AUC, OGTT) (blood glucose [1]; single administration 0.1 mg/kg): 2% | Percent inhibition (blood glucose AUC, OGTT) (blood glucose [1]; single administration 0.15 mg/kg): 3% | Percent inhibition (blood glucose AUC, OGTT) (blood glucose [2]; 4-week administration 0.3 mg/kg): 18.2% | Percent inhibition (blood glucose AUC, OGTT) (blood glucose [2]; 4-week administration 3 mg/kg): 35.3% | Percent inhibition (blood glucose vs control) (blood glucose [3]; 7 days oral 1 mg/kg): 21% | Percent inhibition (blood glucose vs control) (blood glucose [3]; 7 days oral 40 mg/kg): 11% | Percent inhibition (blood glucose AUC, OGTT) (blood glucose [4]; single oral dose 0.1 mg/kg): 7.7% | Fat mass ([5]; 0.3 mg/kg): 3.67 ± 0.12 g | % reduction (fat mass) ([5]; 0.3 mg/kg): −1.65% | Fat mass ([5]; 3 mg/kg): 3.29 ± 0.21 g | % reduction (fat mass) ([5]; 3 mg/kg): 8.71% | Percent inhibition (blood glucose AUC, oral sucrose tolerance test) (blood glucose [6]; single oral dose 0.3 mg/kg): 12% | Percent inhibition (plasma glucose vs control) (plasma glucose; 2-week repeated administration 0.1 mg/kg): 2% | Percent inhibition (plasma glucose vs control) (plasma glucose; 2-week repeated administration 0.15 mg/kg): 15% | ED30 ± (SEM) (blood glucose [7]): 0.20 mg/kg and 0.2 mg/kg and 0.20 ± 0.04 mg/kg | Percent inhibition (blood glucose AUC, OGTT) (blood glucose [7]; single oral dose 0.1 mg/kg): 18.5% | Percent inhibition (blood glucose AUC, OGTT) (blood glucose [7]; single oral dose 0.3 mg/kg): 38.7% | Percent inhibition (blood glucose AUC, OGTT) (blood glucose [7]; single oral dose 1 mg/kg): 54.8%

CCC1=C(C)CN(C(=O)NCCc2ccc(S(=O)(=O)NC(=O)N[C@H]3CC[C@H](C)CC3)cc2)C1=O [Glimepiride, glimepiride]
Percent inhibition (blood glucose AUC, OGTT) (blood glucose [4]; single oral dose 0.02 mg/kg): −3.69% | Percent inhibition (blood glucose AUC, OGTT) (blood glucose [4]; single oral dose 0.32 mg/kg): 10.9%

CN(C)C(=N)N=C(N)N [Metformin, metformin, reference compound]
Percent inhibition (blood glucose AUC, OGTT) (blood glucose [1]; single administration 7.5 mg/kg): 7% | Percent inhibition (blood glucose AUC, OGTT) (blood glucose [1]; single administration 15 mg/kg): 11% | Percent inhibition (plasma glucose vs control) (plasma glucose; 2-week repeated administration 7.5 mg/kg): 13% | Percent inhibition (plasma glucose vs control) (plasma glucose; 2-week repeated administration 15 mg/kg): 14% | ED30 ± (SEM) (blood glucose [7]): 29.6 mg/kg and 30 mg/kg and 29.6 ± 6.68 mg/kg | Percent inhibition (blood glucose AUC, OGTT) (blood glucose [7]; single oral dose 10 mg/kg): 7.43% | Percent inhibition (blood glucose AUC, OGTT) (blood glucose [7]; single oral dose 30 mg/kg): 29.06% | Percent inhibition (blood glucose AUC, OGTT) (blood glucose [7]; single oral dose 100 mg/kg): 54.46%

Cc1c(C(=O)NN2CCCCC2)nn(-c2ccc(Cl)cc2Cl)c1-c1ccc(Cl)cc1 [Rimonabant, rimonabant, reference compound]
Percent inhibition (blood glucose AUC, OGTT) (blood glucose [2]; 4-week administration 3 mg/kg): 1.1% | Fat mass ([5]; 3 mg/kg): 2.11 ± 0.31 g | % reduction (fat mass) ([5]; 3 mg/kg): 41.5%

CN(CCOc1ccc(CC2SC(=O)NC2=O)cc1)c1ccccn1 (stereo not shown) [Rosiglitazone, rosiglitazone, reference compound]
Percent inhibition (blood glucose vs control) (blood glucose [3]; 7 days oral 0.4 mg/kg): 10%

OCC(CO)N[C@H]1C[C@](O)(CO)[C@@H](O)[C@H](O)[C@H]1O [Voglibose, voglibose]
Percent inhibition (blood glucose AUC, oral sucrose tolerance test) (blood glucose [6]; single oral dose 0.009 mg/kg): 1% | Percent inhibition (blood glucose AUC, oral sucrose tolerance test) (blood glucose [6]; single oral dose 0.054 mg/kg): 53%
